These results are taken from PubChem BioAssay (NCI).

What all share (assay): DTP human tumour cell line panel, 48 h
The subject of assay [1] is CCRF-CEM leukemia.
Assay [2] relates to MDA-MB-435.
Assay [3] deals with T-47D breast.
The subject of assay [4] is HCT-15 colon.
Assay [5] deals with A498 renal.
The subject of assay [6] is NCI/ADR-RES ovarian.
Assay [7] relates to ACHN renal.
The test system of assay [8] is HT29 colon.
Assay [9] deals with U251 CNS.
For assay [10], the system named is UACC-257 melanoma.

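1) Cells in 96-well plates. 2) Compound, 48 h, 5 concentrations. 3) Linear interpolation between surrounding doses. 4) Unreached endpoint = highest concentration. Abbreviation: GI50, concentration required for 50% inhibition of growth. The concentration for full growth arrest is given as TGI.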

In general, TGI refers to the concentration giving total growth inhibition. A higher TGI goes with less potent growth arrest. For `c1ccc(CN2COc3c(ccc4c5c(ccc34)CN(Cc3ccccc3)CO5)C2)cc1`, the TGI in assay [1], in assay [2], in [3], in assay [4], in assay [5] and in [6] was above 100 µM each time. In addition, the total growth inhibition concentration (TGI) in assay [7], in assay [8], in assay [9] and in assay [10] was above 100 µM each time.
For the compound `NC(=O)CC(N)c1nn[nH]n1` (stereo not given), the TGI in assay [1], in [2], in assay [3], in assay [4], in assay [5] and in [6] was above 100 µM each time. In addition, the TGI in assay [7], in assay [8], in assay [9] and in assay [10] was above 100 µM in each case.
One may read the GI50 as the concentration at which growth is held to half of that of the control. For the compound `COc1ccc(/C=N\Nc2nc(SCC(C)C)nc(-c3ccc(OC)cc3)c2C#N)cc1`, the GI50 in [1] is 9.78 µM; in [2], 17.9 µM; in assay [3], 1.36 µM; in assay [4], 11.7 µM; in [5], 2.49 µM; in assay [6] it was 10.8 µM. Moreover, the GI50 in assay [7] is 0.71 µM; in [8], 3.19 µM; in assay [9], 0.988 µM; in assay [10], 3.35 µM. Moreover, the TGI was above 100 µM in [1]; above 100 µM in assay [2]; 10.7 µM in assay [3]; above 100 µM in assay [4]; 7.14 µM in assay [5]; 85.4 µM in [6]. For the same compound, the TGI stood at 2.37 µM in assay [7], 20.1 µM in [8], 14.9 µM in assay [9] and 35.7 µM in [10].
